Source: PubChem BioAssay AID1259407 (Chemical Carcinogenesis Research Information System (CCRIS), 2018)
Activity calls are given as the source filed them. The rule behind the calls is not given here.

Tested on: CCRIS mutagenicity, Ames/micronucleus/aberration tests
Test: CCRIS mutagenicity studies
[1] = Test System: AMES SALMONELLA TYPHIMURIUM, Strain/Indicator: TA100, Metabolic Activation: NONE, Method: STANDARD PLATE

With `Cc1cc(O)c2c(c1)C(=O)c1c(O)c(O)cc(O)c1C2=O` the mutagenic call (Test System: AMES SALMONELLA TYPHIMURIUM, Strain/Indicator: TA1537, Metabolic Activation: NONE, Method: STANDARD PLATE) was “inactive; negative” and the mutagenic call (Test System: AMES SALMONELLA TYPHIMURIUM, Strain/Indicator: TA1537, Metabolic Activation: RAT, LIVER, S-9, PCB, Method: STANDARD PLATE) was “active; positive”.
With `Nc1cc([N+](=O)[O-])cc(S(=O)(=O)O)c1O` the mutagenic call (Test System: AMES SALMONELLA TYPHIMURIUM, Strain/Indicator: TA97, Metabolic Activation: HAMSTER, LIVER, S-9, AROCLOR 1254 (10%), Method: PREINCUBATION) was “inactive; negative”, the mutagenic call (Test System: AMES SALMONELLA TYPHIMURIUM, Strain/Indicator: TA97, Metabolic Activation: HAMSTER, LIVER, S-9, AROCLOR 1254 (30%), Method: PREINCUBATION) was “inactive; negative” and the mutagenic call (Test System: AMES SALMONELLA TYPHIMURIUM, Strain/Indicator: TA97, Metabolic Activation: NONE, Method: PREINCUBATION) was “inactive; negative”. The mutagenic call (Test System: AMES SALMONELLA TYPHIMURIUM, Strain/Indicator: TA97, Metabolic Activation: RAT, LIVER, S-9, AROCLOR 1254 (10 OR 30%), Method: PREINCUBATION) was “inactive; negative”, the mutagenic call (Test System: AMES SALMONELLA TYPHIMURIUM, Strain/Indicator: TA98, Metabolic Activation: HAMSTER, LIVER, S-9, AROCLOR 1254 (10 OR 30%), Method: PREINCUBATION) was “inactive; negative” and the mutagenic call (Test System: AMES SALMONELLA TYPHIMURIUM, Strain/Indicator: TA98, Metabolic Activation: NONE, Method: PREINCUBATION) was “inactive; negative”. For the same compound, the mutagenic call (Test System: AMES SALMONELLA TYPHIMURIUM, Strain/Indicator: TA98, Metabolic Activation: RAT, LIVER, S-9, AROCLOR 1254 (10 OR 30%), Method: PREINCUBATION) was “inactive; negative”, the mutagenic call (Test System: AMES SALMONELLA TYPHIMURIUM, Strain/Indicator: TA100, Metabolic Activation: HAMSTER, LIVER, S-9, AROCLOR 1254 (10 OR 30%), Method: PREINCUBATION) was “inactive; negative” and the mutagenic call (Test System: AMES SALMONELLA TYPHIMURIUM, Strain/Indicator: TA100, Metabolic Activation: NONE, Method: PREINCUBATION) was “inactive; negative”. The mutagenic call (Test System: AMES SALMONELLA TYPHIMURIUM, Strain/Indicator: TA100, Metabolic Activation: RAT, LIVER, S-9, AROCLOR 1254 (10 OR 30%), Method: PREINCUBATION) was “inactive; negative”, the mutagenic call (Test System: AMES SALMONELLA TYPHIMURIUM, Strain/Indicator: TA1535, Metabolic Activation: HAMSTER, LIVER, S-9, AROCLOR 1254 (10 OR 30%), Method: PREINCUBATION) was “inactive; negative” and the mutagenic call (Test System: AMES SALMONELLA TYPHIMURIUM, Strain/Indicator: TA1535, Metabolic Activation: NONE, Method: PREINCUBATION) was “inactive; negative”. The mutagenic call (Test System: AMES SALMONELLA TYPHIMURIUM, Strain/Indicator: TA1535, Metabolic Activation: RAT, LIVER, S-9, AROCLOR 1254 (10%), Method: PREINCUBATION) was “inactive; negative”.
With `CCC(=O)C(=O)CC` the mutagenic call [1] was “active; positive”.
With `CCCCCC/C=C/C=O` the mutagenic call (End Point: IN VITRO CHROMOSOMAL ABERRATIONS, Test System: RAT HEPATOCYTES, Metabolic Activation: NONE) was “inactive; negative”, the mutagenic call (End Point: IN VITRO MICRONUCLEUS, Test System: RAT HEPATOCYTES, Metabolic Activation: NONE) was “inactive; negative” and the mutagenic call (Test System: CHINESE HAMSTER V-79, Strain/Indicator: V-79/6-THIOGUANINE, Metabolic Activation: NONE, Method: STANDARD PLATE) was “active; positive”. The mutagenic call (Test System: CHINESE HAMSTER V-79, Strain/Indicator: V-79/OUABAIN, Metabolic Activation: NONE, Method: STANDARD PLATE) was “inactive; negative”.
`C[C@@](Cc1ccc(O)c(O)c1)(NN)C(=O)O` was tested, and the mutagenic call [1] was “active; positive”, the mutagenic call (Test System: AMES SALMONELLA TYPHIMURIUM, Strain/Indicator: TA100, Metabolic Activation: RAT, LIVER, S-9, PHENOBARBITAL, Method: STANDARD PLATE) was “active; positive” and the mutagenic call (Test System: UDS RAT HEPATOCYTES, Strain/Indicator: THY INCORP, Metabolic Activation: NONE, Method: AUTORADIOGRAPHY) was “inactive; negative”.
